In data set [1] the target is T1, Protein deacetylase HDAC6 (Homo sapiens, UniProt Q9UBN7).
T1 sequence (Q9UBN7 whole entry): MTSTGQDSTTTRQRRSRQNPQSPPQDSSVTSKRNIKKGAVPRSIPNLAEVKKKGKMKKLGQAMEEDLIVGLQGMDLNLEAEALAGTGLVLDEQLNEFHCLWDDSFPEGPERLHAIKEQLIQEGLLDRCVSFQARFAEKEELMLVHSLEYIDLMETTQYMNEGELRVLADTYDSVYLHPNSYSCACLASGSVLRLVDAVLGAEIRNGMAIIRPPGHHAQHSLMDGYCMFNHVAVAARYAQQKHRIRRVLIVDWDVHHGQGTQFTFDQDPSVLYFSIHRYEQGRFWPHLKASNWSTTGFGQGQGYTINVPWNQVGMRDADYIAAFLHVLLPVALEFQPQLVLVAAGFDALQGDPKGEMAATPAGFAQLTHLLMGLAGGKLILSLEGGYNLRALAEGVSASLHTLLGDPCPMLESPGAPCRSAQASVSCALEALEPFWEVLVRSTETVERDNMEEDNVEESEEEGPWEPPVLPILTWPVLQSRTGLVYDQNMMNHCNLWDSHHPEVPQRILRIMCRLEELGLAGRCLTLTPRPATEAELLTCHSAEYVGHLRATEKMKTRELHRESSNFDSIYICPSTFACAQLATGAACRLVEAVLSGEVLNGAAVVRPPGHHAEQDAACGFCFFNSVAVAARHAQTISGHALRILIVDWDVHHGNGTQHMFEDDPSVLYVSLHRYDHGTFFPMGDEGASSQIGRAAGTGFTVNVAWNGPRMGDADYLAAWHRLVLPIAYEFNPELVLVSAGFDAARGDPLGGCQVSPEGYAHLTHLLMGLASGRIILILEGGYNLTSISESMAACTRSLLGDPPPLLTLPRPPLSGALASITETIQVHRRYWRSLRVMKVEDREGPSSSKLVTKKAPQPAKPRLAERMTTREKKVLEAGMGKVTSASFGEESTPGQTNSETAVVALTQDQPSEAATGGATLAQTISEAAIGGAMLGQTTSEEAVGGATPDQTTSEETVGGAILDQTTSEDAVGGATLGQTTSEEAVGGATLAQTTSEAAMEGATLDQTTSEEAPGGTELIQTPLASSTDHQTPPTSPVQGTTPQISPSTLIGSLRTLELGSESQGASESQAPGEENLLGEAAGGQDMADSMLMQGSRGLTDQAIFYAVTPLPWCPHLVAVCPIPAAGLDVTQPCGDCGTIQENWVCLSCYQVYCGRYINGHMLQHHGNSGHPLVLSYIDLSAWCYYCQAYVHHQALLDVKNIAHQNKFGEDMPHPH
The data set is described as follows: Inhibition of full length TEV-cleavable N-terminal His6-tagged human recombinant HDAC6 using Ac-RGK (Ac)-AMC as substrate preincubated for 20 hrs followed by substrate addition and measured after 3 hrs by microplate reader analysis.

Data set [2] can be described thus: Aqueous solubility of the compound at pH 7.4. The format is physicochemical.
The target of data set [3] is T1, Protein deacetylase HDAC6. The data set is described as follows: Inhibition of HDAC6 in human BEAS-2B cells assessed as deacetylation of acetylated alpha-tubulin level incubated for 24 hrs by Western blot analysis. It is filed as cell-based.
Data set [4] deals with T1, Protein deacetylase HDAC6. The data set is described as follows: Inhibition of HDAC6 in human BEAS-2B cells assessed as deacetylation of acetylated histone-3 level incubated for 24 hrs by Western blot analysis. It is filed as cell-based. (In general: In western blotting, separated proteins are transferred to a membrane and probed.)
The nature of data set [5]: Metabolic stability in human liver microsomes assessed as disappearance of parent compound. It is filed as ADME, Microsome. Particulars: read-out: CLH.
A short description of data set [6]: Chemical stability of compound in HCL solution at pH 1 assessed as half life by UPLC analysis. It is filed as physicochemical.
Data set [7] can be described thus: Chemical stability of compound in sodium phosphate buffer at pH 7.4 assessed as half life by UPLC analysis. The format is physicochemical.
Data set [8] is described as follows: Chemical stability of compound in sodium carbonate buffer at pH 10 assessed as half life by UPLC analysis. The format is physicochemical.
Data set [9] concerns the target T1, Protein deacetylase HDAC6. The data set can be described thus: Stability of the compound assessed as full-length human HDAC6 mediated-drug degradation measured after 96 hrs by time-resolved mass spectrometry analysis. It is filed as ADME.
For data set [10], the system named is THP-1. The data set can be described thus: Cytotoxicity against human THP-1 cells assessed as reduction in cell viability by alamar blue staining based assay. It is filed as functional. In general terms: Resazurin is reduced to fluorescent resorufin, in cell work by metabolically active cells.
Data set [11] has as its target T2, Protein deacetylase HDAC6 (Homo sapiens) (UniProt Q9UBN7).
T2 sequence (whole entry): T1 sequence (Q9UBN7 whole entry)
The data set is described as follows: Inhibition of HDAC6 in human BEAS-2B cells assessed as deacetylation of acetylated alpha-tubulin level at 10 uM incubated for 24 hrs by Western blot analysis. The format is cell-based.

Data set [12] has as its system THP-1. The data set is described as follows: Cytotoxicity against human THP-1 cells assessed as reduction in cell viability measured upto 250 uM by alamar blue staining based assay. It is filed as functional.

In brackets after ≈: the same amount, converted by molar mass. Activity calls are given as the source filed them. Where only a bound is given, the exact number is not on record here.

As usually defined, the solubility is the dissolved amount per volume that the medium holds. A high value points to much dissolved substance. By EC50 is commonly meant the concentration needed to bring the measured effect to its halfway point. By half-life is commonly meant the time needed for the level to fall by half in the phase considered.

As to `FC(F)c1nnc(-c2cnc(Cn3nnc(-c4ccccn4)n3)nc2)o1`, the IC50 is 15.8 nM in data set [1] and greater than 10000 nM in data set [4]. Further, the concentration in solution in [2] (solubility) came to 120 µM (≈ 42.9 µg/mL). Further, in [3], the EC50 is 1580 nM. Moreover, the microsomal CLint in data set [5] is less than 3 µL/min/mg. Also, the half-life was 7.2 h in [6], 26.4 h in [7] and less than 13.7 h in data set [8]. For the same compound, in data set [9], the Stability result is reported as “Unstable”.

In the case of `FC(F)c1nnc(-c2cnc(NC3(c4ccccc4)CCC(F)(F)CC3)nc2)o1`, the IC50 was 3.98 nM in [1], greater than 10000 nM in data set [4], 130000 nM with THP-1 [10] (read-out: IC50) and 158000 nM in the data set with THP-1 [10] (read-out: pIC50 (converted)). The compound also had a solubility in [2] of 2.6 µM (≈ 1.06 µg/mL). Also, in data set [3], the EC50 is 631 nM. Further, the microsomal CLint in [5] is 12 µL/min/mg. Moreover, the Stability entry in data set [9] was “Unstable”.

With `COc1cccc(CNC(=O)c2csc(-c3nnn(Cc4ccc(C(=O)NO)cc4)n3)c2)c1`, the IC50 in data set [3] is 200 nM.

For the compound `COc1cccc(CNC(=O)c2csc(-c3nnn(Cc4ccc(-c5nnc(C(F)F)o5)cc4)n3)c2)c1`, the values for the IC50 in data set [1] and in [3] were 1.58 nM and 10 nM, respectively. In [2], the solubility was less than 1.6 µM. Moreover, the microsomal CLint in data set [5] is 160 µL/min/mg.

On to `COc1cccc(CNC(=O)c2csc(-c3nnn(Cc4ccc(-c5nnc(C)o5)cc4)n3)c2)c1`, for which the IC50 in [1] is greater than 100000 nM.

For the compound `FC(F)c1nnc(-c2ccc(Cn3nnc(-c4cccnc4)n3)nc2)o1`, the IC50 in data set [1] is 1.26 nM; in [4], greater than 10000 nM. Besides, the solubility in [2] was found to be 170 µM (≈ 60.6 µg/mL). In addition, in [3], the EC50 is 1000 nM. For the same compound, the microsomal CLint in [5] was less than 3 µL/min/mg.

Turning to `COc1cccc(-c2nnn(Cc3ccc(-c4nnc(C(F)F)o4)cn3)n2)c1`, the results for the IC50 in [1] and in data set [4] were 2 nM and greater than 10000 nM, respectively. For the same compound, the solubility in [2] stood at 2.9 µM (≈ 1.12 µg/mL). The EC50 in [3] was 316 nM. In [5], the microsomal CLint was found to be 18 µL/min/mg.

Turning to `O=C(NO)c1cc(F)c(Cn2nnc(-c3ccccn3)n2)c(F)c1`, the IC50 was less than 0.316 nM in data set [1], 5010 nM in [4], 60000 nM with THP-1 [10] (read-out: IC50) and 63100 nM with THP-1 [10] (read-out: pIC50 (converted)). In data set [2], this compound displayed a solubility of 710 µM (≈ 236 µg/mL). In addition, the EC50 in [3] is 20 nM. In [5], the microsomal CLint was less than 3 µL/min/mg. Moreover, the half-life in data set [6] is 624 h; in data set [7] it was 1730 h; in data set [8], 504 h. Further, the Stability result in [9] is recorded as “Stable”.

`COc1cccc(CNC(=O)c2csc(-c3nnn(Cc4ccc(-c5nnc(C(F)(F)F)o5)cc4)n3)c2)c1`: the IC50 in data set [1] was 12.6 nM. Besides, the inhibition entry in data set [11] was “inactive”.

For `FC(F)c1nnc(-c2ccc(Cn3nnnc3-c3ccccn3)cc2)o1`, the IC50 in [1] was 31.6 nM; in data set [4], greater than 10000 nM; in the data set on THP-1 [10] (read-out: pIC50 (converted)) it was greater than 251000 nM. Further, in data set [2], the solubility came to 2.6 µM (≈ 0.924 µg/mL). Besides, in data set [3], the EC50 is greater than 10000 nM. Further, in [5], the microsomal CLint was 5.8 µL/min/mg. For the same compound, the result with THP-1 [12] was inactive.

`FC(F)c1nnc(-c2ccc(Cn3nnc(-c4cccc(Cl)c4)n3)nc2)o1`: the IC50 in data set [1] was 1.58 nM; in data set [4], greater than 10000 nM. Moreover, the concentration in solution in data set [2] (solubility) came to 3.1 µM (≈ 1.21 µg/mL). In addition, in data set [3], the EC50 is 631 nM. Besides, in data set [5], the microsomal CLint is less than 3 µL/min/mg.

On to `Fc1cc(-c2nnc(C(F)F)o2)cc(F)c1Cn1nnc(-c2ccccn2)n1`, for which the figures for the IC50 (in data set [1]; in data set [4]; in the data set on THP-1 [10] (read-out: pIC50 (converted))) were 6.31 nM, greater than 10000 nM and greater than 251000 nM, respectively. The same compound displayed a solubility in data set [2] of 52 µM (≈ 20.3 µg/mL). Further, in [3], the EC50 was 3160 nM. The microsomal CLint in [5] was less than 3 µL/min/mg. For the same compound, the outcome in the data set on THP-1 [12] was inactive. The half-life in data set [6] was less than 13.7 h; in [7] it was 57.6 h; in data set [8] it was less than 13.7 h.

Turning to `CNC(=O)c1csc(-c2nnn(Cc3ccc(-c4nnc(C(F)F)o4)cc3)n2)c1`, the IC50 in [1] was 1 nM; in [4] it was greater than 10000 nM; in the data set on THP-1 [10] (read-out: pIC50 (converted)), greater than 251000 nM. The same compound came in with a solubility in data set [2] of 2.3 µM (≈ 0.96 µg/mL). Moreover, the EC50 in data set [3] was 501 nM. Moreover, in data set [5], the microsomal CLint stood at 7.5 µL/min/mg. Also, in the data set on THP-1 [12], the outcome was inactive.

For `FC(F)c1nnc(-c2ccc(Cn3nnc(-c4ccccn4)n3)cn2)o1`, in data set [1], the IC50 is greater than 10000 nM. Also, the concentration in solution in data set [2] (solubility) was 120 µM (≈ 42.8 µg/mL). The microsomal CLint in data set [5] was less than 3 µL/min/mg.

As for `FC(F)c1nnc(-c2ccc(Cn3nnc(-c4ccccc4Cl)n3)nc2)o1`, the IC50 in [1] is 0.631 nM; in [4] it was greater than 10000 nM; in the data set with THP-1 [10] (read-out: pIC50 (converted)) it was greater than 251000 nM. The solubility in data set [2] came to 5.8 µM (≈ 2.26 µg/mL). In data set [3], the EC50 was 398 nM. Also, the microsomal CLint in data set [5] was less than 3 µL/min/mg. Also, in the data set with THP-1 [12], the result was inactive.

Take `FC(F)c1nnc(-c2ccc(Cn3nnc(-c4ccccc4)n3)nc2)o1`: the IC50 in data set [1] is 0.794 nM; in data set [4] it was greater than 10000 nM; in the data set with THP-1 [10] (read-out: pIC50 (converted)), greater than 251000 nM. This compound showed a solubility in data set [2] of 2.9 µM (≈ 1.03 µg/mL). For the same compound, the concentration for a half-maximal effect (EC50) in data set [3] is 316 nM. The microsomal CLint in [5] is less than 3 µL/min/mg. Moreover, the result in the data set with THP-1 [12] was inactive.

On to `FC(F)c1nnc(-c2ccc(Cn3nnc(-c4ccccn4)n3)cc2)o1`, for which the IC50 is 2 nM in [1], greater than 10000 nM in data set [4] and greater than 251000 nM in the data set with THP-1 [10] (read-out: pIC50 (converted)). The concentration in solution in [2] (solubility) was 14 µM (≈ 4.97 µg/mL). For the same compound, the EC50 in data set [3] was 3160 nM. Further, in data set [5], the microsomal CLint was less than 3 µL/min/mg. The result in the data set on THP-1 [12] was inactive. The half-life was 7.44 h in [6], 240 h in data set [7] and less than 13.7 h in data set [8].

`FC(F)c1nnc(-c2ccc(Cn3nnc(-c4ccc(Cl)cc4)n3)nc2)o1`: the IC50 was 2 nM in data set [1] and greater than 10000 nM in [4]. Moreover, in [2], the concentration in solution (solubility) was 1.3 µM (≈ 0.507 µg/mL). Besides, the EC50 in data set [3] is 1260 nM. Moreover, the microsomal CLint in data set [5] was less than 3 µL/min/mg.

The values are drawn from ChEMBL document CHEMBL5370608, “Selective and Bioavailable HDAC6 2-(Difluoromethyl)-1,3,4-oxadiazole Substrate Inhibitors and Modeling of Their Bioactivation Mechanism” (J Med Chem, 2023).
